Test results: PubChem BioAssay AID624167 (Sanford-Burnham Center for Chemical Genomics, 2012)
Activity calls are given as the source filed them.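 Rule for the calls: active = mean IC50 for reducing PEG3 promoter reporter signal at or below a set limit, with IC50 above the limit in both counter screens; inactive = the rest, including counter screen hits.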

Tests used:
[1] = Peg3 promoter luciferase inhibitors, potency, dose response, cell-based, HeLa, CREF/GAPDH counter-screen panel (AID 624167); conditions: CREF/GAPDH counter-screens; GAPDH; mean of runs
GAPDH = test: as above; conditions: CREF/GAPDH counter-screens
PEG-3 [2] = molecular target: PEG-3 (UniProt Q6IN02); test: as above; conditions: HeLa PEG-Prom luciferase reporter, overnight, CREF/GAPDH counter-screens, mean of runs
PEG-3 [3] = test: as above; conditions: HeLa PEG-Prom luciferase reporter, overnight, CREF/GAPDH counter-screens
Rat fibroblasts (CREF) = test: as above; conditions: CREF/GAPDH counter-screens
[4] = run 1, dose range 1, individual replicate IC50 per panel
[5] = run 2, dose range 1, individual replicate IC50 per panel

PEG-3 (UniProt Q6IN02), sequence (Q6IN02 whole entry, looked up): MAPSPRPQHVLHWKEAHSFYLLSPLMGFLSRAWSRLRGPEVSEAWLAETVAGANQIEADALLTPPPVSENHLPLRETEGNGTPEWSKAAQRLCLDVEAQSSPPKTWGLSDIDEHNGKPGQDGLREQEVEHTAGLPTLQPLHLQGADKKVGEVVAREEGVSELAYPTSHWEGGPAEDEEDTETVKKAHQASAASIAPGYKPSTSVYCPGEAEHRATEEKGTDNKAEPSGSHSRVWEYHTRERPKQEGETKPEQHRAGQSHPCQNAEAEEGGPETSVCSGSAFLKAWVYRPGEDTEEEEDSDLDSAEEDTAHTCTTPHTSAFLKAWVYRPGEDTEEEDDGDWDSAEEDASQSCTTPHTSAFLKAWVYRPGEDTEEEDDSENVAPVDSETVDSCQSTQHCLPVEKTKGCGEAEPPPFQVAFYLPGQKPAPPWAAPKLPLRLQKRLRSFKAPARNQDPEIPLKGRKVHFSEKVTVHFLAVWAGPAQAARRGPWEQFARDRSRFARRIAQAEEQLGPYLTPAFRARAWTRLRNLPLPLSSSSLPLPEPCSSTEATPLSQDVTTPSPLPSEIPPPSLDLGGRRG

Structure (SMILES) | IC50 [1] | IC50 (PEG-3 [2]) | IC50 (GAPDH; [4]) [µM] | IC50 (GAPDH; [5]) [µM] | IC50 (PEG-3 [3]; [4]) [µM] | IC50 (PEG-3 [3]; [5]) [µM] | IC50 (Rat fibroblasts (CREF); mean of runs) | IC50 (Rat fibroblasts (CREF); [4]) [µM] | IC50 (Rat fibroblasts (CREF); [5]) [µM]
C=CCc1cccc(/C=N/NC(=O)C(C)Nc2cccc(C)c2)c1O (centres undefined) | > 100 µM (inactive) | 7.04 µM | > 100 | > 100 | 12.2 | 1.89 | > 100 µM (inactive) | > 100 | > 100
CC(C)(C)c1ccc(Cn2c(=O)cnc3ccccc32)cc1 | 6.22 µM | inactive | 5.99 | 6.44 | 5.23 | > 100 | 51 µM (inactive) | > 100 | 1.93
CCc1ccc(/C=C2\SC(=S)N(CCCC(=O)NC3=NCCS3)C2=O)cc1 | 4.53 µM | 1.21 µM | 4.61 | 4.45 | 1.28 | 1.14 | > 100 µM (inactive) | > 100 | > 100
Cc1cc(NC(c2ccc(Cl)cc2)c2ccc3cccnc3c2O)no1 (centres undefined) | > 100 µM (inactive) | 3.83 µM | > 100 | > 100 | 7.2 | 0.472 | 77.2 µM (inactive) | > 100 | 54.4
CC(=O)NC(c1ccc(Cl)cc1)c1ccc2cccnc2c1O (centres undefined) | inactive | 1.75 µM | 58.8 | 56 | 1.47 | 2.04 | > 100 µM (inactive) | > 100 | > 100
CCCC(=O)NC(c1ccc(OC)cc1)c1ccc2cccnc2c1O (centres undefined) | inactive | 1.74 µM | 57.7 | 70.4 | 2.76 | 0.719 | 50.7 µM (inactive) | > 100 | 1.48
Cc1ccc(OCC(=O)c2cc(C)n(Cc3ccco3)c2C)c([N+](=O)[O-])n1 | 13 µM | 6.81 µM | 7.31 | 18.7 | 6.5 | 7.13 | > 100 µM (inactive) | > 100 | > 100
CS(=O)(=O)Nc1cccc(NC(=O)C2Cc3c(-c4cccc(F)c4)ccnc3O2)c1 (centres undefined) | inactive | 2.87 µM | > 100 | 44.6 | 3.11 | 2.62 | > 100 µM (inactive) | > 100 | > 100
Cc1nc(C)c(C(=O)N/N=C/c2cc(Br)ccc2O)s1 | > 100 µM (inactive) | inactive | > 100 | > 100 | 5.65 | > 100 | 64.9 µM (inactive) | 52.3 | 77.5
O=C(/C=C/c1ccc(Cl)c([N+](=O)[O-])c1)c1ccc(O)cc1 | 16.6 µM | 6.34 µM | 17.9 | 15.3 | 8.19 | 4.5 | 26.5 µM | 29.7 | 23.2

More lines, main results first:

IC50 [1] | IC50 (PEG-3 [2]) | Structure (SMILES) | IC50 (GAPDH; [4]) [µM] | IC50 (GAPDH; [5]) [µM] | IC50 (PEG-3 [3]; [4]) [µM] | IC50 (PEG-3 [3]; [5]) [µM] | IC50 (Rat fibroblasts (CREF); mean of runs) | IC50 (Rat fibroblasts (CREF); [4]) [µM] | IC50 (Rat fibroblasts (CREF); [5]) [µM]
inactive | 0.512 µM | O=C(N/N=C\c1c(O)ccc2ccccc12)c1cncc(Br)c1 | 40.3 | 69.7 | 0.52 | 0.504 | 9.73 µM | 2.43 | 17
inactive | 8.07 µM | COc1cc(Nc2c3ccccc3nc3ccccc23)cc(OC)c1OC | 33.2 | 35 | 8.96 | 7.19 | 36.2 µM | 26.9 | 45.5
> 100 µM (inactive) | inactive | CCCCC(=O)NC(c1ccccc1)c1ccc2cccnc2c1O (centres undefined) | > 100 | > 100 | 2.84 | > 100 | > 100 µM (inactive) | > 100 | > 100
inactive | 0.724 µM | COc1ccc(NC(=O)c2cc(-c3ccccn3)nc3ccccc23)cc1S(=O)(=O)N(C)C | > 100 | 43.6 | 1.12 | 0.329 | > 100 µM (inactive) | > 100 | > 100
5.5 µM | inactive | Cc1ccc(OCC(=O)c2cc(C)n(-c3ccccc3)c2C)c([N+](=O)[O-])n1 | 2.62 | 8.38 | 0.686 | > 100 | > 100 µM (inactive) | > 100 | > 100
21.4 µM | 10.3 µM | COc1ccc(-n2cc(-c3ccccc3)c3c(N4CCOCC4)ncnc32)cc1 | 21.3 | 21.4 | 12.1 | 8.51 | 68.5 µM (inactive) | 66.9 | 70.1
